Results published in US6310091A, “Fungicidal saponin, CAY-1, and isolation thereof from Capsium species fruit” (The United States of America as represented by the …, priority 2000, dated 2001).
Where two headings read alike, the source gives them in different places.

Experiments:
[1] = tested on: Pneumocystis carinii; experiment: Effect on Pneumocystis carinii viability (ATP-driven bioluminescent assay); assay type: cell-based; conditions: Pneumocystis carinii, read-out: Percent of Control Mean
Protocol: 3. Pneumocystis carinii. The effect of CAY-1 on Pneumocystis carinii was determined as described previously [Cushion et al., Antimicrob. Agents Chemother., 1997, 41:379-384, herein incorporated by reference]. This assay is based on an ATP-driven bioluminescent reaction and was used to determine the concentration of CAY-1 which decreased the P. carinii ATP pools.

[2] = tested on: Candida species; conditions: a number of Candida species; cited from earlier work

CC1(C)S[C@@H]2[C@H](NC(=O)[C@H](N)c3ccccc3)C(=O)N2[C@H]1C(=O)O [Ampicillin, reference compound]
activity at 29 µM ([1]; 24 h, Day 1, 10 μg/ml, 29 μM): 96% | activity at 29 µM ([1]; 48 h, Day 2, 10 μg/ml, 29 μM): 94.7% | activity at 29 µM ([1]; 72 h, Day 3, 10 μg/ml, 29 μM): 94.8%

CC1(C)[C@@H](O[C@@H]2OC[C@H](O[C@@H]3O[C@H](CO)[C@@H](O)[C@H](O)[C@H]3O[C@@H]3OC[C@H](O)[C@H](O)[C@H]3O)[C@H](O)[C@H]2O[C@@H]2O[C@H](CO)[C@@H](O)[C@H](O)[C@H]2O)CC[C@]2(C)[C@H]3CC[C@]45OC[C@@]6(CC[C@](C)(C=O)C[C@H]64)[C@H](O)C[C@@]5(C)[C@]3(C)CC[C@@H]12 [deglucocyclamin]
inhibitory properties [2]: inhibitory properties

cyclainorin
inhibitory properties [2]: inhibitory properties

N=C(N)c1ccc(OCCCCCOc2ccc(C(=N)N)cc2)cc1 [Pentamidine, reference compound]
activity at 2.9 µM ([1]; 24 h): 46.2% | activity at 29 µM ([1]; 24 h): 5.4% | activity at 2.9 µM ([1]; 48 h): 22% | activity at 29 µM ([1]; 48 h): 3.5% | activity at 2.9 µM ([1]; 72 h): 3.9% | activity at 29 µM ([1]; 72 h): 1.2%
